Results as given in patent publication US20210207082A1, “SPHERICAL 3D TUMOR SPHEROID” (KOREA INSTITUTE OF SCIENCE AND TECHNOLOGY, priority 2019, published 2021).

Experiments:
ASC+MDA-MB-231 spheroid [1] = experiment: Real Time-Glo Annexin V apoptosis assay, 3D spheroid; format: cell-based, human; settings: 10 μM doxorubicin, 48 hours
Method: (§1) Apoptotic and necrotic cells in spheroids were assayed using Real Time-Glo™ Annexin V apoptosis and necrosis assays. Real Time-Glo™ Annexin V apoptosis and necrosis assays were performed in combination with a cell viability assay. […] Thereafter, 2X apoptosis and necrosis formulations of the same volume (100 μL) were added to each well according to standard protocol proposed in manufacturer's instructions.
(§2) To investigate drug sensitivity depending on the viability against doxorubicin in the spheroids, Real Time-Glo™ Annexin V apoptosis and necrosis assays were performed. If apoptosis is induced by a drug response, a cell membrane is reversed to expose phosphatidyl-serine (PS), and an apoptotic cell can be analyzed by binding PS with Annexin V detected by a luminescence signal. A necrotic cell is detected by binding DNA with PI (green) that produces a fluorescence signal when the necrotic cell invades into a cell and a cell membrane loses integrity.

FIB+MDA-MB-231 spheroid [2] = experiment: as above; format: cell-based, human; settings: 10 μM doxorubicin, 48 hours
Method: as §1, §2

BMSC+MDA-MB-231 spheroid [3] = experiment: as above; format: cell-based, human; settings: 10 μM doxorubicin, 48 hours
Method: as §1, §2

[4] = tested on: three types of 3D spheroids versus 2D monolayer; experiment: 3D versus 2D comparison of cell viability; format: cell-based, human; settings: doxorubicin
[5] = tested on: 3D multicellular tumor spheroids (ASC, BMSC or FIB + MDA-MB-231); experiment: Necrosis (PI) assay, three types of 3D spheroids; format: cell-based, human; settings: 10 μM doxorubicin, 48 hours
Method: as §1, §2

BMSC+MDA-MB-231 spheroid [6] = experiment: Real Time-Glo MT cell viability assay, 3D multicellular tumor spheroid; format: cell-based; settings: Homo sapiens, 48 h; 10 μM doxorubicin for two days
ASC+MDA-MB-231 spheroid [7] = experiment: as above
FIB+MDA-MB-231 spheroid [8] = experiment: as above; format: cell-based; settings: Homo sapiens, 48 h; 10 μM doxorubicin for two days

COc1cccc2c1C(=O)c1c(O)c3c(c(O)c1C2=O)C[C@@](O)(C(=O)CO)C[C@@H]3O[C@H]1C[C@H](N)[C@H](O)[C@H](C)O1 [doxorubicin]
apoptosis (Annexin V) fold change (ASC+MDA-MB-231 spheroid [1]): 9 fold
apoptosis (Annexin V) fold change (FIB+MDA-MB-231 spheroid [2]): about 13 times
apoptosis (Annexin V) fold change (BMSC+MDA-MB-231 spheroid [3]): 10 fold
drug sensitivity of 3D spheroids compared with 2D monolayer [4]: lower drug sensitivity
necrosis (PI), difference between spheroid types [5]: No significant difference
viability at 10 µM (BMSC+MDA-MB-231 spheroid [6]): 48.3%
cell viability (ASC+MDA-MB-231 spheroid [7]; 10 μM doxorubicin for two days): 56.67%
viability, compared with other co-culture ratios (ASC+MDA-MB-231 spheroid [7]; ASC:MDA-MB-231 co-culture ratio 5:5, 10 μM doxorubicin, 48 hours): highest
viability at 10 µM (FIB+MDA-MB-231 spheroid [8]): 43%
